Measured values published in patent publication US20090202987A1, “Canis sphingosine 1-phosphate receptor isoform 2” (priority 2004, published 2009).

Experiments:
cS1P2 receptor [1] = target: T1, cS1P2 receptor (Canis lupus familiaris, UniProt A0A8I3P3I1); test: S1P ligand binding assay with transfected CHO cells expressing the cS1P2 receptor; parameters: species or system Canis (dog); details: 33P-S1P binding to CHO cells expressing cS1P2, 60 minutes at room temperature; read-out: EC50 (S1P ligand binding, FIG. 3)
Method: The transfected CHO cells from Example 2 expressing the cS1P2 receptor were evaluated for the ability of the cS1P2 receptor expressed in the cells to properly integrate into the cell membrane and bind SIP.
Transfected CHO cells from Example 2 were harvested with enzyme-free dissociation solution (Specialty Media, Lavallette, N.J.). The cells were washed once in cold PBS and suspended in SIP binding buffer (50 mM HEPES-Na, pH 7.5, 5 mM MgCl2, 1 mM CaCl2, 0.5% FAF-BSA). ^33P-S1P was synthesized enzymatically from γ^33P-ATP and sphingosine using a crude extract with sphingosine kinase activity in a reaction mix containing 50 mM KH2PO4, 1 mM mercaptoethanol, 1 mM Na3VO4, 25 mM KF, 2 mM semicarbazide, 1 mM Na2EDTA, 5 mM MgCl2, […], 0.1% TritonX-114, and 1 mCi γ^33P-ATP (NEN; specific activity 2000 Ci/mnol). Reaction products were extracted with butanol and ^33P-S1p was purified by HPLC.
^33P-S1P (0.1 uCi/ml) was sonicated with 0.2 nM S1P dissolved in binding buffer; 100 μL of the mixture was added to 100 μL cells (1×10^5). Binding was performed for 60 minutes at room temperature. […] After drying the filter plates for 30 minutes, 50 μL of MICROSCINT 20 was added to each well and binding was measured with a Packard Top Count. Non-specific binding was defined as the amount of radioactivity remaining in the presence of 200 nM cold S1P.

cS1P2 receptor [2] = target: T1, cS1P2 receptor; test: 35S-GTPγS binding assay with membranes from transfected CHO cells; type: biochemical, Canis (dog); details: membranes of cS1P2-transfected CHO cells, 5 μM GDP, 100 pM 35S-GTPγS, one hour at room temperature; read-out: EC50 (35S-GTPγS binding, FIG. 4)
Method: Functional coupling of the cS1P2 receptor to G proteins was measured in a ^35S-GTPγS binding assay. Membranes were prepared from transfected cells by homogenization in ice cold 20 mM HEPES pH 7.4, 10 mM EDTA using a Kinematica polytron (setting 5, for 10 seconds). Homogenates were centrifuged at 48,000×g for 15 minutes at 4° C. and the pellet suspended in 20 mM HEPES pH 7.4, 0.11 mM EDTA. Following a second centrifugation, the final pellet was suspended in 20 mM HEPES pH 7.4, 100 mM NaCl, 10 mM MgCl2. Membranes were incubated in 200 μL with 5 μM GDP, various concentrations of SIP (sonicated in 1% BSA), and 100 pM ^35S-GTPγS (NEN; specific activity 1250 Ci/mmol) in 96 well microtiter dishes. Binding was performed for one hour at room temperature, and terminated by harvesting the membranes onto GF/B filter plates with a Packard Filtermate Universal Harvester. After drying the filter plates for 30 min, 40 μL of MICROSCINT 20 was added to each well and binding was measured on a Packard Top Count scintillation counter.

EC50 (cS1P2 receptor [1]): ~5.7 nM
EC50 (cS1P2 receptor [2]): ~0.8 nM
SMILES: CCCCCCCCCCCCC/C=C/[C@@H](O)[C@@H](N)COP(=O)(O)O [S1P, sphingosine-1-phosphate]
